Assay results published in patent US6423109B1, “Free flowing fertilizer composition with enhanced deposition/anti drift characteristics” (Adjuvants Unlimited Inc., priority 2000, dated 2002).

Experiment: Gel formation (% +50 mesh gel bound)
Assay type: physicochemical
Details: tap water at 1% dilution

Compound: N.N.O=S(=O)(O)O [Ammonium Sulfate (AMS), Ammonium Sulfate]
- % +50 mesh gel bound: 0%
